Eight compounds from patent US12466821B2 (Novartis AG, priority 2018, dated 2025) can be followed below.

In assay [1] the target is human CMV DNA polymerase UL54 (Human cytomegalovirus (strain AD169) (HHV-5) (Human herpesvirus 5), UniProt P08546). Put plainly: CMV polymerase biochemical assay (molecular beacon-based). The essentials: (§1)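 Readout was beacon fluorescence (ex 480, em 535 nm), used to derive IC50. Each dNTP was at 1.25 uM, with 200 nM primer and 100 nM beacon, after a 30-min RT inhibitor preincubation. Enzyme was 625 pM for HSV UL30 (20 min RT reaction) or 100 pM for CMV UL54 (60 min RT), both sf9-expressed MBP fusions, in pH 7.5 Tris buffer with MgCl2.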

Assay [2] has as its target human HSV DNA polymerase UL30 (Human herpesvirus 1 (strain 17) (HHV-1) (Human herpes simplex virus 1), UniProt P04293). The assay can be described thus: HSV polymerase biochemical assay (molecular beacon-based). The essentials:
as §1

The subject of assay [3] is Luciferase-encoding HCMV, AD169 strain. Put plainly: CMV Luciferase assay (cellular herpesvirus replication). As to conditions: Human betaherpesvirus 5, AD169, read-out: CMV-Luc Cellular EC50. In kind it is cell-based. The essentials: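 Neonatal human dermal fibroblasts were pretreated 1 h with compound (final 0.0159–50 μM or 0.00318–10 μM, 0.5% DMSO), then infected at MOI 1 with AD169 carrying pp28-promoter luciferase. After 72 h at 37 °C, Renilla-Glo luminescence normalized to no-virus and virus-only controls; EC50 by 4-parameter logistic model.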

Take `N#Cc1ccc(CNC(=O)c2ccc3n(c2=O)CCN(CC2(S(=O)(=O)C4CC4(F)F)CC2)C3=O)cc1` (stereo not drawn) [Example 98-1]: the concentration for half-maximal inhibition (IC50) amounted to 1.5 nM in assay [1] and 57.5 nM in assay [2]. In assay [3], the EC50 stood at 65.2 nM.

For the compound `Cc1cc(C(=O)NCc2ccc(Cl)cc2)c(=O)n2c1C(=O)N(CC1(S(=O)(=O)C3CC3)CC1)CC2` [Example 93-2], the 50% inhibitory concentration (IC50) was 0.8 nM in assay [1] and 28.6 nM in assay [2]. Further, in assay [3], the EC50 stood at 15.3 nM.

In the case of `N#Cc1ccc(CNC(=O)c2ccc3n(c2=O)CCN(CC2(S(=O)(=O)C4(CF)CC4)CC2)C3=O)cc1` [Example 13], the IC50 in assay [1] is 0.4 nM; in assay [2], 28.3 nM. The EC50 in assay [3] worked out at 19.3 nM.

Consider `C[C@@H](CCO)S(=O)(=O)C1(CN2CCn3c(ccc(C(=O)NCc4ccc(C#N)cc4)c3=O)C2=O)CC1` (single isomer, unassigned) [Example 8, N-(4-cyanobenzyl)-2-((1-((4-hydroxybutan-2-yl)sulfonyl)cyclopropyl)methyl)-1,6-dioxo-2,3,4,6-tetrahydro-1H-pyrido[1,2-a]pyrazine-7-carboxamide], for which the results for the IC50 in assay [1] and in assay [2] were 4.6 nM and 111 nM, respectively. In addition, the EC50 in assay [3] amounted to 784 nM.

For `N#Cc1ccc(CNC(=O)c2ccc3n(c2=O)CCN(CC2(S(=O)(=O)C4CNC4)CC2)C3=O)cc1` [Example 18], the values for the half-inhibitory concentration (IC50) in assay [1] and in assay [2] were 4.2 nM and 161 nM, respectively. The EC50 in assay [3] turned out to be 3000 nM.

Take `CS(=O)(=O)CCN1CCn2c(c(C#N)cc(C(=O)NCc3ccc(Cl)cc3)c2=O)C1=O` [Example 125, N-(4-chlorobenzyl)-9-cyano-2-(2-(methylsulfonyl)ethyl)-1,6-dioxo-1,3,4,6-tetrahydro-2H-pyrido[1,2-a]pyrazine-7-carboxamide]: the IC50 in assay [1] came to 566 nM; in assay [2] it was 1010 nM. Moreover, the EC50 in assay [3] worked out at 20200 nM.

Regarding `N#Cc1ccc(CNC(=O)c2ccc3n(c2=O)CCN(CC2(S(=O)(=O)N4CC(F)(F)C4)CC2)C3=O)cc1F` [Example 84-2], the IC50 was 2.8 nM in assay [1] and 80.6 nM in assay [2]. In addition, the 50% effective concentration (EC50) in assay [3] is 54.8 nM.

`N#Cc1ccc(CNC(=O)c2ccc3n(c2=O)CCN(CC2(S(=O)(=O)CC4CC4)CC2)C3=O)cc1F` [Example 107-3]: the IC50 in assay [1] was found to be 2.2 nM; in assay [2], 72.6 nM. For the same compound, the EC50 in assay [3] amounted to 174 nM.

In general, IC50 refers to the concentration at which inhibition is half-maximal. Low readings indicate inhibition by little substance, high ones a need for much substance. What is called EC50 is the concentration at which the effect is half-maximal.
